The test system of assay [1] is TNFα production. Kind of assay: Human Whole Blood test (LPS-stimulated TNFα production). Type of assay: cell-based. As to conditions: inhibition of TNFα production in LPS-stimulated human whole blood. Here is the method: The ability of the compounds of this invention to inhibit TNFα production was also assessed in a human whole blood assay. Human whole blood secretes TNFα when stimulated with LPS. This property of blood forms the basis of an assay which is used as a secondary test for compounds which profile as active in the PBMC test.
Heparinised (10 units/ml) human blood was obtained from volunteers. 160 μl whole blood were added to 96 well round-bottom plates (Corning 25850). Compounds were solubilised and serially diluted in RPMI 1640 medium (Gibco) supplemented with 50 units/ml penicillin, 50 μg/ml streptomycin and 2 mM glutamine, as detailed above. 20 μl of each test concentration was added to appropriate wells (triplicate cultures), 20 μl of RPMI 1640 medium supplemented with antibiotics and glutamine was added to control wells. Plates were incubated for 30 minutes at 37° C. (humidified incubator), prior to addition of 20 μl LPS (final concentration 10 μg/ml). RPMI 1640 medium was added to control wells. Six “LPS alone” and four “medium alone” controls were included on each plate. A known TNFα synthesis/secretion inhibitor was included in each test. Plates were incubated for 6 hours at 37° C. (humidified incubator). Plates were centrifuged (2000 rpm for 10 minutes) and 100 μl plasma removed and stored at −70° C. (Corning 25850 plates). TNFα levels were measured by ELISA (see WO92/10190 and Current Protocols in Molecular Biology, vol 2 by Frederick M. Ausbel et al., John Wiley and Sons Inc.). The paired antibodies that were used in the ELIZA were obtained from R&D Systems (catalogue nos. MAB610 anti-human TNFA coating antibody, BAF210 biotinylated anti-human TNFα detect antibody).

Assay [2] concerns the target T1, p38α (Homo sapiens, UniProt Q16539).
T1 construct: c-myc (N); 6His (N); made in house; host or cells: E. coli (PET vectors)
Kind of assay: In vitro enzyme assay, p38α. Type of assay: biochemical. As to conditions: read-out: IC50 against p38α. Here is the method:
(§1) The ability of compounds of the invention to inhibit the enzyme p38 kinase was assessed. Activity of test compounds against each of the p38α and p38β isoforms of the enzyme was determined. […]
(§2) Test compounds were solubilised in DMSO and 10 μl of a 1:10 diluted sample in ‘Kinase Buffer’ was added to a well in a Microtiter plate. […] The precipitated protein was phosphorylated by p38 kinase and test compounds were assessed for their ability to inhibit this phosphorylation. The plates were filtered using a Canberra Packard Unifilter and washed with 2% TCA, dried overnight and counted on a Top Count scintillation counter.
(§3) Test compounds were tested initially at a single dose and active compounds were retested to allow IC50 values to be determined.

Assay [3] addresses T2, p38β (Homo sapiens, UniProt Q15759).
T2 construct: Human recombinant p38α and p38β isoforms were produced as 5′ c-myc, 6His tagged proteins; fused on or other part: N-terminal c-myc and 6His tags
Kind of assay: In vitro enzyme assay, p38β. The class given is biochemical. As to conditions: read-out: IC50 against p38β. On the procedure:
as §1, §2, §3

T1 sequence (Q16539 whole entry): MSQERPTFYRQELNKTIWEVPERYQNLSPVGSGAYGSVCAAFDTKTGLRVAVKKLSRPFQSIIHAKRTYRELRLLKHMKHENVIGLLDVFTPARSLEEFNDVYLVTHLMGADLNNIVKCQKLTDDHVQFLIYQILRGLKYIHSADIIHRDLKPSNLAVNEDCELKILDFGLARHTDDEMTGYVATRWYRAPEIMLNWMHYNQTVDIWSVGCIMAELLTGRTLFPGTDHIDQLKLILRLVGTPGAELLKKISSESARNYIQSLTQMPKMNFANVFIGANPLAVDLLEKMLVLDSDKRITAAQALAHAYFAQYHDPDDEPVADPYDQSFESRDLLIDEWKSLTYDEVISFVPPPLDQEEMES
T2 sequence (Q15759 whole entry, the tested form may be a part, canonical isoform): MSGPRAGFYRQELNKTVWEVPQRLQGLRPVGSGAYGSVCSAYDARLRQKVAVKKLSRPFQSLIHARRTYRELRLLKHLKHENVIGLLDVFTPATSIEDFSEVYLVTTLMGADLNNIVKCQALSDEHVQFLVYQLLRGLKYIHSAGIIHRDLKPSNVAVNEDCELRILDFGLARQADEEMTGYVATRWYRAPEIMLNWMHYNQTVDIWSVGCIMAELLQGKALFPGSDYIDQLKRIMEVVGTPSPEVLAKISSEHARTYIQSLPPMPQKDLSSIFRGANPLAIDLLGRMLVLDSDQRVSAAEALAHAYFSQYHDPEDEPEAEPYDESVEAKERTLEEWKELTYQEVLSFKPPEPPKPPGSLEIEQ

For the compound `Cc1ccc(NC(=O)c2ccnc(N3CCOCC3)c2)cc1-n1cnc2ccc(N(C)CCCN(C)C)cc2c1=O` [6-[N-(3-dimethylaminopropyl)-N-methylamino]-3-[2-methyl-5-(2-morpholinopyrid-4-ylcarbonylamino)phenyl]-3,4-dihydroquinazolin-4-one], the IC50 is ~2000 nM in assay [1] and ~200 nM in assay [2].
As to `CN(C)CCCN(C)c1ccc2ncn(-c3cccc(NC(=O)c4ccnc(N5CCOCC5)c4)c3)c(=O)c2c1` [6-[N-(3-dimethylaminopropyl)-N-methylamino]-3-[5-(2-morpholinopyrid-4-ylcarbonylamino)phenyl]-3,4-dihydroquinazolin-4-one], the figures for the IC50 in assay [3] and in assay [1] were ~50 nM and ~5000 nM, respectively.
Turning to `Cc1ccc(NC(=O)c2ccnc(N3CCOCC3)c2)cc1-n1cnc2c(N(C)CCCN(C)C)cccc2c1=O` [8-[-(3-dimethylaminopropyl)-N-methylamino]-3-[2-methyl-5-(2-morpholinopyrid-4-ylcarbonylamino)phenyl]-3,4-dihydroquinazolin-4-one], the IC50 was ~7000 nM in assay [1] and ~100 nM in assay [2].

A word on the IC50: it is the concentration needed to halve the response being measured.
